According to US5021415A, “Triazine carboxylic acids and esters” (Bristol-Myers Squibb Co., priority 1990, dated 1991):
Converted amounts (≈) assume the structure as drawn.

The compounds below were run on ADP-induced aggregation of human platelets. Conditions: vs ADP, 0.5 mcg/mL final; human platelet rich plasma; Table 2; read-out: Inhibition of Human Platelet Aggregation of Formula II Compounds (IC50) Vs ADP.
Assay type: cell-based

IC50 [µg/mL]	SMILES
1 (≈ 2.27 µM)	COC(=O)COc1cccc(CCn2nc(-c3ccccc3)c(-c3ccccc3)nc2=O)c1 [Example 5, Methyl [3-[2-(2,3-dihydro-3-oxo-5,6-diphenyl-1,2,4-triazin-2-yl)ethyl]phenoxy]acetate]
0.9 (≈ 2.11 µM)	O=C(O)COc1cccc(CCn2nc(-c3ccccc3)c(-c3ccccc3)nc2=O)c1 [Example 6, [3-[2-(2,3-Dihydro-3-oxo-5,6-diphenyl 1,2,4-triazin-2-yl)ethyl]phenoxy]acetic Acid]

Same assay, conditions: vs. ADP, 0.5 mcg/mL final; human platelet rich plasma; Table 1; read-out: Inhibition of Human Platelet Aggregation of Formula I Compounds (IC50) vs. ADP

IC50 [µg/mL]	SMILES
6.8 (≈ 16.2 µM)	COC(=O)CCCCCCCCn1nc(-c2ccccc2)c(-c2ccccc2)nc1=O [Example 1, Methyl 3-oxo-5,6-diphenyl-1,2,4-triazine-2(3H)-nonanoate]
2.2 (≈ 5.43 µM)	O=C(O)CCCCCCCCn1nc(-c2ccccc2)c(-c2ccccc2)nc1=O [Example 2, 3-Oxo-5,6-diphenyl-1,2,4-triazine-2(3H)-nonanoic acid]
4.6 (≈ 11.3 µM)	COC(=O)CCCCCCCn1nc(-c2ccccc2)c(-c2ccccc2)nc1=O [Example 3, Methyl 3-Oxo-5,6-diphenyl-1,2,4-triazine-2(3H)-octanoate]
3.1 (≈ 7.92 µM)	O=C(O)CCCCCCCn1nc(-c2ccccc2)c(-c2ccccc2)nc1=O [Example 4, 3-Oxo-5,6-diphenyl-1,2,4-triazin-2(3H)-octanoic Acid]
